Entries after “also recorded” stand apart in the source; their conditions may differ.
How the values were obtained:
[1] = Handling in the presence of water (Example 8, methanol/water 60/40), form checked by XRPD; format: physicochemical; settings: handled in the presence of water, 40% water (Example 8)
Experimental: 20.0 mg of amorphous Compound 1 was solid dosed in a 1.8 mL vial and 100 μL of a methanol/water mixture (60/40 (v/v)) was added at ambient temperature. The solution was subjected to a temperature profile of heating and cooling between 50° C. and 5° C. for three cycles, each heating cycle was at 10° C./hr while the cooling cycles were at −20° C./hr, −10° C./hr and −5° C./hr, for each cycle, respectively, finishing at ambient temperature. During the entire experiment the mixture was stirred at 30 rpm using a magnetic stirrer and a TEFLON®-coated magnetic stirring bar with dimensions 7mm in length and 2 mm in width.
Upon completion of the thermo-profile, the solid was collected by centrifugation (3000 rpm for 10 minutes) followed by solvent mixture removal by Pasteur pipette and dried under ambient conditions for one hour, before being analyzed by XRPD.

[2] = Accelerated aging analysis by XRPD (Method J); format: physicochemical; settings: 40° C. and 75% relative humidity for 48 hours (2 days)
Experimental: Samples collected from the crystallization conditions were subjected, as is, to accelerated aging conditions of 40° C. and 75% relative humidity for 48 hours, via standard methods and analyzed by XRPD.
Dry solid samples from Examples 1 and 2, were transferred into a boron-glass capillary with 0.3 mm outer diameter. The capillary was mounted on the goniometer head and placed in the D8 Advance Bruker-AXS Diffractometer equipped with solid state LynxEye detector. The capillary was spinning during data recording, at 15 rpm. The XRPD platform was calibrated using Silver Behenate for the long d-spacings and Corundum for the short d spacings.
Data collection for Compound 1 Form A and Compound 1 Form B, were carried out, in transmission mode, at ambient conditions (˜23° C. and ˜100 kPa) using monochromatic CuKα1 radiation (1.54056 Å) in the 2Θ region between 4° and 45°, with an exposure time of 90 s for each frame and 0.016° increments. No additional corrections were made during data collection.

With `C=C1CC[C@H]2[C@H](CN)[C@@H]([C@@]3(C)CC[C@H](O)C[C@@H]3CO)CC[C@]12C.CC(=O)O` [Compound 1 Form A, acetate salt of (1S,3S,4R)-4-((3aS,4R,5S,7aS)-4-(aminomethyl)-7a-methyl-1-methyleneoctahydro-1H-inden-5-yl)-3-(hydroxymethyl)-4-methylcyclohexanol] as the molecule, how does the “Stability to exposure to water / hydrate formation (XRPD)” value [1] read?
Its value is “resistant to hydrate formation”.

What about the “Solid form stability after accelerated aging (XRPD diffractogram versus FIG. 2)” value [2] of the same molecule?
Its value is “equivalent to FIG. 2; also recorded: without converting to another form”.

Reference: patent publication US20180290964A1, “CRYSTALLINE SOLID FORMS OF THE ACETATE SALT OF (1S,3S,4R)-4-((3AS,4R,5S,7AS)-4-(AMINOMETHYL)-7A-METHYL-1-METHYLENEOCTAHYDRO-1H-INDEN-5-YL)-3-(HYDROXYMETHYL)-4-METHYLCYCLOHEXANOL” (Aquinox Pharmaceuticals (Canada) Inc., priority 2015, published 2018)
